Results on 1 compound are retold here after paper PMC5588548, “Suramin Inhibits Osteoarthritic Cartilage Degradation by Increasing Extracellular Levels of Chondroprotective Tissue Inhibitor of Metalloproteinases 3” (Molecular Pharmacology, 2017).

For one experiment, the target named is T1, human TIMP-3 (Homo sapiens, UniProt P35625).
T1 construct: made in house; host or cells: human embryonic kidney 293 cells
T1 sequence (P35625 24-211): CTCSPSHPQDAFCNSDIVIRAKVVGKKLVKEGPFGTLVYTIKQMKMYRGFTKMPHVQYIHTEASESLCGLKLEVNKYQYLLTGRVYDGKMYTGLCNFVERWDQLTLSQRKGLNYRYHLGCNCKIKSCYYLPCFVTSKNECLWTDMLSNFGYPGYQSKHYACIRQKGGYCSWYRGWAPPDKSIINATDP
The experiment in a line: Solid-phase binding of TIMP-3 to immobilized suramin or analogs (ELISA). The following applies: TIMP-3 0.4–50 nM. The method, then:
Glycosaminoglycan-binding ELISA plates (BD Life Sciences, Swindon, UK) were coated with suramin or its analogs (10 µg/ml in Tris-buffered saline, 18 hours, 25°C) ([Mahoney et al., 2004]) and wells were blocked with 0.2% gelatin in PBS (1 hour, 37°C). Wells were washed in PBS containing 0.1% Tween 20 after this and every subsequent step. Purified FLAG-tagged human TIMP-3 (0.4–50 nM) in blocking solution was applied to wells (3 hours, 37°C), and binding was detected with anti-FLAG M2 primary antibody and anti-mouse horseradish peroxidase–conjugated secondary antibody. 3,3′,5,5′-Tetramethylbenzidine (Becton Dickinson, Swindon, UK) substrate was added, the reaction was stopped when appropriate by adding 2 N H2SO4, and absorbance at 450 nm was measured using a FLUOstar Omega microplate reader (BMG Labtech, Aylesbury, Buckinghamshire, UK). Data (mean ± S.E., n = 3 technical repeats) were analyzed using Prism 7.0b software (GraphPad Software, La Jolla, CA) and EC50 values determined using a one-site specific binding model. Flat planar dimensions of suramin analogs were estimated using ICM-Pro software (Molsoft LLC, San Diego, CA).
(In an ELISA, binding on a coated surface is turned into a signal by an enzyme label.)

A further experiment concerns the target T2, TIMP-3 binding to LRP1 (Homo sapiens, UniProt P35625).
T2 construct: purchased BioMac, Leipzig, Germany
T2 sequence (P35625 24-211): T1 sequence (P35625 24-211)
The experiment in a line: TIMP-3 binding to immobilized LRP1 (ELISA). Conditions: TIMP-3 preincubated with suramin 200 µg/ml, 1 hour, 37°C. The method, then:
LRP1 (5 nM; BioMac, Leipzig, Germany) was coated (overnight, 4°C) onto medium-binding ELISA plates (Greiner Bio-One, Stonehouse, UK) in 20 mM HEPES, 150 mM NaCl, 5 mM CaCl2, and 0.05% Tween 20, pH 7.4. Wells were blocked with 10% bovine serum albumin (BSA) in Tris HCl, NaCl, and CaCl2 (TNC) buffer (50 mM Tris HCl, pH 7.5, 150 mM NaCl, 10 mM CaCl2, and 0.05% Brij 35). Wells were washed in TNC buffer containing 0.1% Tween 20 after this and every subsequent step. FLAG-tagged human TIMP-3 (0.4–50 nM), either alone or preincubated with suramin (200 μg/ml, 1 hour, 37°C), was applied to wells in TNC buffer containing 5% BSA (3 hours, 25°C). Binding was detected with anti-FLAG M2 primary antibody and anti-mouse horseradish peroxidase–conjugated secondary antibody in the same buffer. 3,3′,5,5′-Tetramethylbenzidine (Becton Dickinson) substrate was added, the reaction was stopped when appropriate by adding 2 N H2SO4, and absorbance at 450 nm was measured using a FLUOstar Omega microplate reader. Data (mean ± S.D., n = 3) were analyzed using Prism 7.0b software.

In experiment [1] the test system is HTB94 chondrosarcoma cells. It is filed as cell-based. Conditions: after 8 hours; TIMP-3 1 nM preincubated with suramin 200 µg/ml; HTB94 cells. The procedure: (§1) Cells (HTB94 chondrosarcoma cells, primary porcine chondrocytes, or human osteoarthritic chondrocytes) were plated overnight (6 × 10^5 cells per well of a 12-well plate) in DMEM containing 10% FCS and washed three times in serum-free DMEM.
To evaluate endocytosis of exogenously added TIMP-3, cells were incubated with recombinant TIMP-3 (1 nM in 1.5 ml DMEM with 0.1% FCS) for 0–24 hours. Conditioned media were concentrated by precipitation with trichloroacetic acid [5% (v/v), 4°C, 18 hours]. After centrifugation (13,000 rpm, 4°C, 10 minutes), protein-containing pellets were resuspended in SDS sample buffer (30 µl), electrophoresed (7 µl) on a 10% polyacrylamide gel, and immunoblotted onto polyvinylidene fluoride. After blocking in 5% (m/v) BSA in Tris-buffered saline, TIMP-3 levels were analyzed using an M2 anti-FLAG antibody (Sigma-Aldrich), an alkaline phosphatase–conjugated anti-mouse secondary antibody (Promega, Southampton, UK), and a Western Blue stabilized substrate for alkaline phosphatase (Promega). Immunoblots were analyzed by densitometry using Phoretix 1D densitometry software (TotalLab, Newcastle-upon-Tyne, UK), and TIMP-3 remaining in the medium (mean ± S.D., n = 3) was calculated relative to pixel volume at a t of 0 hours (defined as 100%).

The subject of experiment [2] is HTB94 chondrosarcoma cells. As to the kind of experiment: Accumulation of endogenous TIMP-3 in medium of HTB94 cells. It is filed as cell-based. The following applies: suramin 50–200 µg/ml, 30 hours. The method, then:
as §1
Media were harvested, precipitated with trichloroacetic acid, and analyzed by immunoblotting using a rabbit anti–TIMP-3 polyclonal antibody (AB6000; Millipore, Hertfordshire, UK) and an alkaline phosphatase–conjugated anti-rabbit secondary antibody (Promega). […]

Another experiment deals with TIMP-1 mRNA. As to the kind of experiment: TIMP-1 mRNA analysis in HTB94 cells (quantitative PCR). It is filed as cell-based. The following applies: suramin 0–250 µg/ml, 18 hours. The method, then:
(§2) HTB94 chondrosarcoma cells or primary human chondrocytes (1 × 10^6 cells) were treated in triplicate with 0–250 µg/ml suramin in serum-free DMEM for 18–48 hours. Total RNA was isolated from cells using an RNeasy mini kit (Qiagen, Crawley, UK) and cDNA was synthesized (reverse transcriptase kit; Applied Biosystems, Foster City, CA). Levels of TIMP-1, TIMP-2, TIMP-3, LRP1, and RPLP0 internal reference mRNA were quantified by real-time polymerase […] chain reaction on a Corbett Rotor-Gene 6000 (Corbett Life Science, Mortlake, NSW, Australia) using TaqMan Fast Universal PCR Master Mix (Applied Biosystems) and TaqMan probes (Applied Biosystems) Hs01092512_g1 for TIMP-1, Hs00234278_m1 for TIMP-2, Hs00165949_m1 for TIMP-3, Hs00233856_m1 for LRP1, and Hs99999902_m1 for RPLP0. The ΔΔ threshold cycle values (mean ± S.D., n = 3 technical replicates) are shown relative to control untreated HTB94 cells (defined as 1).

For a further experiment, the system named is TIMP-2 mRNA. The experiment in a line: TIMP-2 mRNA analysis in HTB94 cells (quantitative PCR). The class given is cell-based. Conditions: suramin 0–250 µg/ml, 18 hours. The method, then:
as §2

For another experiment, the system named is MMP-9. More on the design: method as in Taniguti et al., 2012. The following applies: ref Taniguti et al., 2012; cited from earlier work.
Experiment [3] relates to rat inflammatory arthritis model. Also on record: method as in Sahu et al., 2012. The following applies: ref Sahu et al., 2012; cited from earlier work.

As a reminder, the EC50 is the concentration giving half of the maximal effect. Low values mean an effect from little substance, high ones a need for much substance. As usually defined, the Kd is a measure of binding affinity in units of concentration.

On to `Cc1ccc(C(=O)Nc2ccc(S(=O)(=O)O)c3cc(S(=O)(=O)O)cc(S(=O)(=O)O)c23)cc1NC(=O)c1cccc(NC(=O)Nc2cccc(C(=O)Nc3cc(C(=O)Nc4ccc(S(=O)(=O)O)c5cc(S(=O)(=O)O)cc(S(=O)(=O)O)c45)ccc3C)c2)c1` [suramin], for which the EC50 on human TIMP-3 (plates coated with 10 µg/ml compound, one-site specific binding model, mean ± S.E., n = 3) was 1.9 ± 0.21 nM. Also, the Kd on human TIMP-3 (solid-phase binding assay, plates coated 10 µg/ml, read-out: KD value for TIMP-3 binding to immobilized compound) was found to be 1.9 ± 0.2 nM. On TIMP-3 binding to LRP1, the “TIMP-3 binding to immobilized LRP1” value was “abolished”. For the same compound, the “TIMP-3 remaining in the medium” value in experiment [1] is listed as “more than 85%”. Further, the “endogenous TIMP-3 in the medium” value in experiment [2] was “accumulated”. For the same compound, the “TIMP-1 mRNA levels” value in the experiment with TIMP-1 mRNA is “no effect”. Also, the “TIMP-2 mRNA levels” value in the experiment on TIMP-2 mRNA is given as “no effect”. For the same compound, the MMP-9 activity entry in the experiment on MMP-9 is on record as “inhibit MMP-9 activity”. Besides, in experiment [3], the cartilage damage result was “ameliorate cartilage damage”.
